Source: the supplement of paper PMC11451515

Test system: NOMO1
Experiment: cell viability relative to DMSO control; higher = less cytotoxic
Conditions: 48 h
Method in brief: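 Viability values are per-plate percentages of DMSO wells, with background from cell-free wells. Library compounds in DMSO were pin-dosed, in an 11-point threefold series from 47 μM to 0.79 nM, onto NOMO1 or SEM (500 cells/well) or P12-Ichikawa (1000 cells/well) leukemia cells in 1536-well plates (5 μl). Those cells had been adapted for at least four passages in each medium, and CellTiter-Glo One luminescence was read after 48 h at 37°C.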

[1] = HPLM + 10% dialyzed FBS, 0.000781 µM
[2] = HPLM + 10% dialyzed FBS, 0.00234 µM
[3] = HPLM + 10% dialyzed FBS, 0.00702 µM
[4] = HPLM + 10% dialyzed FBS, 0.0211 µM
[5] = HPLM + 10% dialyzed FBS, 0.0632 µM
[6] = HPLM + 10% dialyzed FBS, 0.19 µM
[7] = HPLM + 10% dialyzed FBS, 0.569 µM
[8] = HPLM + 10% dialyzed FBS, 1.71 µM
[9] = HPLM + 10% dialyzed FBS, 5.12 µM
[10] = HPLM + 10% dialyzed FBS, 15.4 µM
[11] = HPLM + 10% dialyzed FBS, 46.1 µM
[12] = RPMI 5 mM glucose + 10% FBS, 0.000781 µM
[13] = RPMI 5 mM glucose + 10% FBS, 0.00234 µM
[14] = RPMI 5 mM glucose + 10% FBS, 0.00702 µM
[15] = RPMI 5 mM glucose + 10% FBS, 0.0211 µM
[16] = RPMI 5 mM glucose + 10% FBS, 0.0632 µM
[17] = RPMI 5 mM glucose + 10% FBS, 0.19 µM
[18] = RPMI 5 mM glucose + 10% FBS, 0.569 µM
[19] = RPMI 5 mM glucose + 10% FBS, 1.71 µM
[20] = RPMI 5 mM glucose + 10% FBS, 5.12 µM
[21] = RPMI 5 mM glucose + 10% FBS, 15.4 µM
[22] = RPMI 5 mM glucose + 10% FBS, 46.1 µM
[23] = RPMI 5 mM glucose + 10% dialyzed FBS, 0.000781 µM
[24] = RPMI 5 mM glucose + 10% dialyzed FBS, 0.00234 µM
[25] = RPMI 5 mM glucose + 10% dialyzed FBS, 0.00702 µM
[26] = RPMI 5 mM glucose + 10% dialyzed FBS, 0.0211 µM
[27] = RPMI 5 mM glucose + 10% dialyzed FBS, 0.0632 µM
[28] = RPMI 5 mM glucose + 10% dialyzed FBS, 0.19 µM
[29] = RPMI 5 mM glucose + 10% dialyzed FBS, 0.569 µM
[30] = RPMI 5 mM glucose + 10% dialyzed FBS, 1.71 µM
[31] = RPMI 5 mM glucose + 10% dialyzed FBS, 5.12 µM
[32] = RPMI 5 mM glucose + 10% dialyzed FBS, 15.4 µM
[33] = RPMI 5 mM glucose + 10% dialyzed FBS, 46.1 µM

Row | SMILES | cell viability [1] [%] | cell viability [2] [%] | cell viability [3] [%] | cell viability [4] [%] | cell viability [5] [%] | cell viability [6] [%] | cell viability [7] [%] | cell viability [8] [%] | cell viability [9] [%] | cell viability [10] [%] | cell viability [11] [%] | cell viability [12] [%] | cell viability [13] [%] | cell viability [14] [%] | cell viability [15] [%] | cell viability [16] [%] | cell viability [17] [%] | cell viability [18] [%] | cell viability [19] [%] | cell viability [20] [%] | cell viability [21] [%] | cell viability [22] [%] | cell viability [23] [%] | cell viability [24] [%] | cell viability [25] [%] | cell viability [26] [%] | cell viability [27] [%] | cell viability [28] [%] | cell viability [29] [%] | cell viability [30] [%] | cell viability [31] [%] | cell viability [32] [%] | cell viability [33] [%]
1 | COc1nccc(-c2c(-c3ccc(F)cc3)ncn2C2CCC(O)CC2)n1 (stereo unspecified) | 120 | 123 | 121 | 123 | 132 | 121 | 111 | 122 | 112 | 119 | 51.3 | 107 | 109 | 120 | 115 | 111 | 112 | 103 | 100 | 98.4 | 100 | 35.9 | 122 | 114 | 126 | 109 | 116 | 118 | 105 | 118 | 111 | 107 | 74.3
2 | O=C(O)CCNc1cc(N2CCc3ccccc3CC2)nc(-c2ccccn2)n1 | 111 | 133 | 115 | 138 | 140 | 123 | 111 | 116 | 117 | 94.5 | 75.9 | 121 | 105 | 107 | 111 | 104 | 128 | 115 | 106 | 116 | 105 | 92.9 | 121 | 123 | 124 | 128 | 127 | 121 | 136 | 111 | 117 | 97.3 | 96.1
3 | CCc1ccc(C(=O)Nc2cc(CN3CCN(C)CC3)cc(C(F)(F)F)c2)cc1C#Cc1cnc2ccnn2c1 | 117 | 113 | 123 | 118 | 109 | 129 | 134 | 142 | 104 | 103 | 101 | 99.5 | 112 | 113 | 114 | 120 | 110 | 119 | 116 | 119 | 128 | 102 | 115 | 119 | 107 | 112 | 120 | 114 | 125 | 119 | 120 | 107 | 113
4 | Oc1cc2c(cc1O)C1c3ccc(O)c(O)c3OCC1(O)C2 (stereo unspecified) | 95.1 | 89.1 | 104 | 93.5 | 111 | 107 | 102 | 115 | 111 | 105 | 110 | 102 | 92.3 | 101 | 102 | 91.9 | 96.6 | 97.7 | 94.9 | 106 | 92.2 | 93.9 | 77.6 | 87.2 | 104 | 97.2 | 99 | 106 | 107 | 110 | 103 | 103 | 102
5 | CC[C@H](NC(C)C)[C@H](O)c1ccc(O)c2[nH]c(=O)ccc12 | 113 | 103 | 108 | 97.6 | 108 | 113 | 124 | 107 | 108 | 96.8 | 104 | 91.2 | 95.8 | 88.7 | 95.7 | 84.6 | 107 | 101 | 94.5 | 97 | 84.1 | 90.6 | 84.7 | 109 | 104 | 94.4 | 102 | 107 | 96.9 | 95.3 | 94.6 | 87 | 91.2
6 | O=C(O)CSCC(=O)NC1CCSC1=O (stereo unspecified) | 122 | 112 | 105 | 95.1 | 118 | 119 | 107 | 117 | 106 | 112 | 122 | 105 | 105 | 111 | 99.8 | 110 | 116 | 114 | 102 | 108 | 105 | 104 | 104 | 95.7 | 114 | 104 | 109 | 113 | 108 | 118 | 105 | 100 | 102
7 | Cn1cc(-c2cnn3c(N)c(Br)c([C@@H]4CCCNC4)nc23)cn1 | 99.8 | 107 | 111 | 102 | 101 | 99 | 93.2 | 47.7 | 21.8 | 15.8 | 27.6 | 99.7 | 88 | 88.8 | 85.2 | 89.7 | 89.3 | 84.2 | 60.3 | 16.4 | 11.3 | 12.8 | 78.7 | 93.1 | 84.1 | 98.2 | 95.3 | 92.5 | 81.2 | 33.4 | 20.1 | 16.5 | 19
